SMILES strings stand for the structures. “And” between values parts separate entries of the source, which are not always exact repeats. Identical values can stand only once.

The IC50 is the concentration that inhibits the measured activity by half. Broadly, the viability, T/C is the result in the treated group divided by that in the control group, in per cent.

The test has as its system 817829-284-R-J1-PDC spheroids with HUVEC/MSC, viability. Description: Anticancer human tumor 817829-284-R-J1-PDC patient-derived colon adenocarcinoma cell line growth inhibition [TAK]. Conditions: for viability, T/C: stronger effect = lower value. The text has this: Combinatorial screen of targeted agents with TAK-243 and ipatasertib in multi-cell type tumor spheroids
A high-throughput screen of multi-cell type tumor spheroids was designed to identify active combinations of targeted small molecules and TAK-243 or ipatasertib. Complex spheroids include a stromal component modeled by human endothelial cells (HUVEC) and fibroblasts modeled by human mesenchymal stem cells (MSCs). The concentration ranges selected for each drug and investigational agent were based upon clinically achievable concentrations if the clinical Cmax of the agent was known.
Compounds. The drugs and investigational agents: TAK-243 (785004), ipatasertib (767898), everolimus (733504), selumetinib (741078), bortezomib (756655), trametinib (758246), ixazomib (758254), vemurafenib (761431), dabrafenib (764134), sapanisertib (764658), alpelisib (765974), and copanlisib (816437), were obtained from the National Cancer Institute (NCI) Developmental Therapeutics Program Chemical Repository. The FDA-approved anticancer drug set is available from the NCI Developmental Therapeutics Program. […] The stock solutions were prepared in dimethyl sulfoxide (DMSO, Sigma-Aldrich, St. Louis, MO, cat. D2650) at 800-fold the tested concentration and stored at -70 degrees C prior to their use. All drugs and investigational agents were tested over a range starting from a high concentration at or near the clinical Cmax and decreasing in half-log increments. If the clinical Cmax for an agent had not been determined, the highest concentration tested was 10 microM.
NCI60 Cell Culture. NCI60 cell lines were obtained from the NCI Developmental Therapeutics Program Tumor Repository. For each lot of cells, the Repository performed Applied Biosystems AmpFLSTR Identifiler testing with PCR amplification to confirm consistency with the published Identifier STR profile for each cell line. Cells were kept in continuous culture for no more than 20 passages. The optimal seeding densities for each of the cell lines at each time point assessed were determined prior to performing the concentration response studies. Briefly, the NCI60 human tumor lines were grown as monolayers in RPMI 1640 medium supplemented with 10% FBS and 2 mmol/L L-glutamine.
An additional 2 lines were from the NCI60 cell line panel including melanomas, MALME-3M and SK-MEL-2. Pooled donor human umbilical vein endothelial cells (HUVEC, Lonza, cat. CC-2519) and human mesenchymal stem cells (hMSC, Lonza, cat. PT-2501) were purchased from Lonza (Walkersville, MD).
PDMR cell lines were grown in complete medium (DC medium): Dulbecco's modified Eagle's medium (DMEM)/F12 supplemented with 5% fetal bovine serum (FBS), 2 mM L-glutamine, 100 U/mL penicillin and 100 µg/ml streptomycin, 0.4 µg/ml hydrocortisone, 10 ng/ml epidermal growth factor (EGF) recombinant human protein, 24 µg/mL adenine, and 0.1 mg/mL primocin. During culture from frozen stock vials, PDMR cells were cultured in the same medium containing 10 µM Y-27632 (see Table 3). The PDCs were cultured in complete DMEM/F12 media without 10 microM Y-27632 dihydrochloride for at least two passages prior to the screen. The pooled donor HUVEC and hMSC were cultured in endothelial cell growth medium 2 (PromoCell, Heidelberg, Germany, cat. C-22011) and mesenchymal stem cell growth medium 2 (PromoCell, cat. C-28009), respectively. For all experiments, HUVEC and hMSC were used at passages </=5.
For the pre-screen, cell seeding densities were determined from a titration spanning the range from 5,000 to 313 cells per well. The mct-spheroids including 60% malignant cells, 25% HUVEC and 15% MSC dispensed as a mixture into U-bottom Ultra-Low Attachment 384-well plates (Corning, NY)
High-throughput Drug Combination Screening.
Prior to their inoculation into 384-well plates, malignant cells, HUVEC, and hMSC were removed from T flasks using TrypLE express (Thermo Fisher Scientific, cat. 12605036) and harvested by centrifugation for 5 min at 233 x g. […]

In the case of `COc1c(OCCCN2CCOCC2)ccc2c3n(c(=NC(=O)c4cnc(N)nc4)nc12)CCN3` + CC(C)NCC(C(=O)N1CCN(c2ncnc3c2C(C)CC3O)CC1)c1ccc(Cl)cc1, the IC50 is, setting by setting: (curve of first compound, second compound 0.3 µM) 8.27 nM; (curve of first compound, second compound 0.949 µM) below 3.16 nM; (curve of first compound, second compound 3 µM) below 3.16 nM; (curve of first compound, second compound 9.49 µM) below 3.16 nM; (curve of first compound, second compound 30 µM) below 3.16 nM. In addition, the viability, T/C is 64.6% (second compound 0.3 µM, first compound 0.00316 µM); 47% (second compound 0.3 µM, first compound 0.01 µM); 23.3% (second compound 0.3 µM, first compound 0.0316 µM); 8.89% (second compound 0.3 µM, first compound 0.1 µM); 2.93% (second compound 0.3 µM, first compound 0.316 µM); 2.83% (second compound 0.3 µM, first compound 1 µM). Moreover, the viability, T/C is 20.2% (second compound 0.949 µM, first compound 0.00316 µM); 10.4% (second compound 0.949 µM, first compound 0.01 µM); 8.85% (second compound 0.949 µM, first compound 0.0316 µM); 4.57% (second compound 0.949 µM, first compound 0.1 µM); 1.95% (second compound 0.949 µM, first compound 0.316 µM); 1.97% (second compound 0.949 µM, first compound 1 µM). The viability, T/C is 7.34% (second compound 3 µM, first compound 0.00316 µM); 4.51% (second compound 3 µM, first compound 0.01 µM); 3.03% (second compound 3 µM, first compound 0.0316 µM); 2.24% (second compound 3 µM, first compound 0.1 µM); 1.67% (second compound 3 µM, first compound 0.316 µM); 1.29% (second compound 3 µM, first compound 1 µM). For the same compound, the viability, T/C was 5.41% (second compound 9.49 µM, first compound 0.00316 µM); 3.12% (second compound 9.49 µM, first compound 0.01 µM); 2.03% (second compound 9.49 µM, first compound 0.0316 µM); 2.04% (second compound 9.49 µM, first compound 0.1 µM); 1.13% (second compound 9.49 µM, first compound 0.316 µM); 1.28% (second compound 9.49 µM, first compound 1 µM). Also, the viability, T/C was 3.31% (second compound 30 µM, first compound 0.00316 µM); 1.8% (second compound 30 µM, first compound 0.01 µM); 1.37% (second compound 30 µM, first compound 0.0316 µM); 1.05% (second compound 30 µM, first compound 0.1 µM); 0.7% (second compound 30 µM, first compound 0.316 µM); 0.47% (second compound 30 µM, first compound 1 µM).

Turning to `CC(C)NCC(C(=O)N1CCN(c2ncnc3c2C(C)CC3O)CC1)c1ccc(Cl)cc1` (configuration not stated), the viability, T/C by setting is: (compound 3 µM) 15.9% [middle of 10 runs]; (compound 9.49 µM) 11.2% [middle of 10 runs]; (compound 30 µM) 6.54% [middle of 10 runs]. The IC50 was 1.55 µM [middle of 6 runs] (compound alone, run of 02/28/2020) and 665 nM [middle of 4 runs] (compound alone, run of 03/19/2020).

In the case of `CCCS(=O)(=O)Nc1ccc(F)c(C(=O)c2c[nH]c3ncc(-c4ccc(Cl)cc4)cc23)c1F`, the viability, T/C reads like this: (compound 0.316 µM) 89.1% and 93%; (compound 1 µM) 81.3% and 89.1%; (compound 3.16 µM) 62.7% and 34.4%; (compound 10 µM) 12.4% and 10.9%; (compound 31.6 µM) 56.8% and 26.3%; (compound 100 µM) 59.9% and 43.6%. The IC50 (curve of compound) is 6650 nM and 2270 nM.

These data come from PubChem BioAssay AID2060347 (Molecular Pharmacology Branch, DTP, NCI, 2025).
